Laboratory results taken from patent US20260152503A1, “SPIROBICYCLIC COMPOUNDS” (ACERAND THERAPEUTICS (HONG KONG) LIMITED, priority 2022, published 2026).

Assays:
[1] = target: T1, FGFR2 (Homo sapiens, UniProt P21802, K310R/N549K); assay: pERK potency assay (In Cell ELISA), AN3CA cells; assay type: cell-based; details: for IC50: pERK, AN3CA (FGFR2/k310R, N549K) cells, 3 hours; for FGFR1 IC50/FGFR2 IC50 / FGFR3 IC50/FGFR2 IC50: selectivity ratio, pERK potency; for FGFR1 IC50/FGFR2 IC50: FGFR2 relative to FGFR1; for FGFR3 IC50/FGFR2 IC50: FGFR2 relative to FGFR3
T1 construct: in FGFR aberrations of AN3CA (FGFR2/k310R, N549K); host or cells: AN3CA
Outline: (§1)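 Cells with FGFR aberrations (DMS114 FGFR1 amplification, RT112 FGFR3-TACC3 fusion, AN3CA FGFR2 K310R/N549K) exposed 3 h at 37 °C to compound, final 0.000038–10 μM (4-fold dilutions). pERK (Thr202/Tyr204) quantified by In-Cell ELISA chemiluminescence; IC50 from 4-parameter sigmoidal fit.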

[2] = tested on: AN3CA; assay: 2D cell proliferation assay, AN3CA; assay type: cell-based; details: Homo sapiens, AN3-CA, 96 hours, CTG, read-out: Cell Line, IC50 AN3CA
Experimental: (§2) Low IC50 values are indicative of the high potency of the FGFR inhibitor compounds in this assay selling. […] Cell proliferation assays are performed in two-dimensional (2D)) anchorage-dependent conditions in 96 well plates (Corning® Black/Clear flat Bottom, Cat #3603) with the following cell lines: • Ba/F3 FGFR2-BICC1 (human […]): Mouse Ba/F3 cell line stably expressed exogenous human FGFR2-BICC1 fusion gene bearing V546F mutation in FGFR2 Ba/F3; • FGFR2-BICC1 (human FGFR2/[…]): Mouse Ba/F3 cell line stably expressed exogenous human FGFR2-BICC1 fusion gene bearing N549K mutation in FGFR2; • Snu-16: human gastric cancer cell with FGFR2 amplification; • KATO III: human gastric cancer cell with FGFR2 amplification; • AN3CA: Human endometrial cancer with FGFR2 mutation (k310R, N549K); • MFM-223: Human breast cancer with FGFR1/2 amplification; • MFE-296: Human endometrial cancer with FGFR2 mutation (N549K); • MFE-280: Human endometrial cancer with FGFR2 mutation ([…]); • NCI-H1581: human non-small cell lung cancer with FGFR1 amplification; • KG-1a: Acute myelogenous leukemia with FGFR1OP2-FGFR1 translocation; • DMS114: human small cell carcinoma of the lung with FGFR1 amplification; • RT112: human bladder cancer with FGFR3 overexpression/FGFR3-TACC3 fusion; • SW780: human bladder cancer with FGFR3 overexpression/FGFR3-BALAP2L1 fusion; • Hep3B: Liver cancer with FGF19 amplification (FGFR4 ligand); • AGS: Human gastric adenocarcinoma with Kras G12D mutation and FGFR wild type; • PC-9: human non-small cell lung cancer (NSCLC) with wild-type FGFR and an EGFR del19 mutation; or • H1975: human non-small cell lung cancer (NSCLC) with wild-type FGFR and EGFR L858R/T790M mutation.
(§3) Cell lines are purchased from the American Type Culture Collection (ATCC) or Sigma. All cell lines are maintained in RPMI-1640 or DMEM supplemented with 10% heat-inactivated fetal bovine serum.
(§4) Cells growing in the log phase are detached with Gibco™ TrypLE™ Express Enzyme and plated in 96 well plate at 3000 to 5000 cells/well in 100 μl of media. After overnight incubation at 37° C., 5% CO2 incubator, cells are treated with compounds (50 uL/well) at the final concentrations spanning from 0.000038 uM to 10 μM (4-fold serial dilution for total of 10 points). Cells are incubated at 37° C., 5% CO2, and 95% humidity incubator for 96 hours. At the end of incubation 2D CTG reagent from Promega was added to each well according to vendors recommendation and mixed for 10 min in dark. The luminescence signals are determined with a Biotek™ plate reader. Data is fitted using a sigmoidal curve analysis program (GraphPad Prism®) with variable hill slope and IC50 is determined.

[3] = tested on: SNU-16; assay: 2D cell proliferation assay, SNU-16; assay type: cell-based; details: Homo sapiens, 96 hours, CTG, read-out: Cell Line, IC50 SNU-16
Experimental: as §2, §3, §4

[4] = target: T2, FGFR3 (Homo sapiens, UniProt P22607); assay: pERK potency assay (In Cell ELISA), RT112 cells; assay type: cell-based; details: RT112 (FGFR3 overexpression/FGFR3-TACC3 fusion) cells, 3 hours
T2 construct: RT112 (FGFR3 overexpression/FGFR3-TACC3 fusion); host or cells: RT112; the other entry of the earlier key: TACC3 (Q9Y6A5, Transforming acidic coiled-coil-containing protein 3)
Outline: as §1

[5] = tested on: KATO III; assay: 2D cell proliferation assay, KATO III; assay type: cell-based; details: Homo sapiens, 96 hours, CTG, read-out: Cell Line, IC50 KATO III
Experimental: as §2, §3, §4

[6] = target: T3, FGFR1 (Homo sapiens, UniProt P11362); assay: pERK potency assay (In Cell ELISA), DMS114 cells; assay type: cell-based; details: DMS114 (FGFR1 amplification) cells, 3 hours
T3 construct: DMS114 (FGFR1 amplification); host or cells: DMS114
Outline: as §1

[7] = target: T4, Ba/F3 FGFR2-V564F (Homo sapiens, UniProt P21802, V564F, cells depend on it); assay: 2D cell proliferation assay, Ba/F3 FGFR2-V564F; assay type: cell-based, mouse; details: 96 hours, CTG, read-out: Cell Line, IC50 Ba/F3 FGFR2-V564F
T4 construct: fused on or other part: Q9H694 (Protein bicaudal C homolog 1)
Experimental: as §2, §3, §4

[8] = target: T5, Ba/F3 FGFR2-N549K (Homo sapiens, UniProt P21802, N549K, cells depend on it); assay: 2D cell proliferation assay, Ba/F3 FGFR2-N549K; assay type: cell-based, mouse; details: 96 hours, CTG, read-out: Cell Line, IC50 Ba/F3 FGFR2-N549K
T5 construct: fused on or other part: Q9H694 (Protein bicaudal C homolog 1)
Experimental: as §2, §3, §4

T4 sequence (P21802 whole entry V564F, the tested form may be a part): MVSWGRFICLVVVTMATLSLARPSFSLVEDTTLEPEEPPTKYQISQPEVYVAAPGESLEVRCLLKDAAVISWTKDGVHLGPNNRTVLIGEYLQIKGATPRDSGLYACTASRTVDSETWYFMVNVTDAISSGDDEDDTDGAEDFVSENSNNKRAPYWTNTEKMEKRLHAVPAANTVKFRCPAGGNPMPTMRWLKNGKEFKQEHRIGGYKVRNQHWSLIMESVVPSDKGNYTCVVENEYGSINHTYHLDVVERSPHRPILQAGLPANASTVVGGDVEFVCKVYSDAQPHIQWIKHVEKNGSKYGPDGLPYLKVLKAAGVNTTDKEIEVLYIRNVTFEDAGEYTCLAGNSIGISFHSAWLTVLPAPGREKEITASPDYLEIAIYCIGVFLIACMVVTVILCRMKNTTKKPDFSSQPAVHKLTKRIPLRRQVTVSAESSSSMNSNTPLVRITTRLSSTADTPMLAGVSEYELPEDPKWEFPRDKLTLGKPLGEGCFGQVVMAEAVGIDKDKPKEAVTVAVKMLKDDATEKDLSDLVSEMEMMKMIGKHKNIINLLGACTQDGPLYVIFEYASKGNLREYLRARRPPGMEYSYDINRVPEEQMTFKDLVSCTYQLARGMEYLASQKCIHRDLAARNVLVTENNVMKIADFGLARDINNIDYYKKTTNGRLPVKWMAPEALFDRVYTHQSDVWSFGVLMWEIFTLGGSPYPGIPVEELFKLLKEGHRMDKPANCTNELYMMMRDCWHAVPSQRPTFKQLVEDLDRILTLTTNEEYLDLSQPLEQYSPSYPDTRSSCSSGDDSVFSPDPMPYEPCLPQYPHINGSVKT
T1 sequence (P21802 22-821 K310R/N549K): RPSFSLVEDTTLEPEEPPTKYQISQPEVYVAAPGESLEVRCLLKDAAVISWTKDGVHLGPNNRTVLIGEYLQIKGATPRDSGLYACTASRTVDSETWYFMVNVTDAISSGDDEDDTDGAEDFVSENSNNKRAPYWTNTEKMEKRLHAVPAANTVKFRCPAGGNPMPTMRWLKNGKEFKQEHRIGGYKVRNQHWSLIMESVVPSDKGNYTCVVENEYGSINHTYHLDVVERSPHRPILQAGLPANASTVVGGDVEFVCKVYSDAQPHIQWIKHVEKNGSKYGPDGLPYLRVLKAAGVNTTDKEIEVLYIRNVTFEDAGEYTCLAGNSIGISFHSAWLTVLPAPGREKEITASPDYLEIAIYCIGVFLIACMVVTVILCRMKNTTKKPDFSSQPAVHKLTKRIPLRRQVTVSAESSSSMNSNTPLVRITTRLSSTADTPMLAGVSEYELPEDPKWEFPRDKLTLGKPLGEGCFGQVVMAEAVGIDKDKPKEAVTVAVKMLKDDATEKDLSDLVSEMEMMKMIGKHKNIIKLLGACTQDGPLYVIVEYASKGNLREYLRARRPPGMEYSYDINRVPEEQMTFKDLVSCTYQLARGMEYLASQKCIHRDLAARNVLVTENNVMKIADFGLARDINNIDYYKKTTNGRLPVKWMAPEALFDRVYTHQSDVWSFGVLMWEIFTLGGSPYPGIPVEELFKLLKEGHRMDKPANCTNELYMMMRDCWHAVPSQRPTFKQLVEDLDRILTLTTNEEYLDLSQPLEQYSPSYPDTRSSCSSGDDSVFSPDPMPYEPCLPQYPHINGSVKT
T3 sequence (P11362 22-822): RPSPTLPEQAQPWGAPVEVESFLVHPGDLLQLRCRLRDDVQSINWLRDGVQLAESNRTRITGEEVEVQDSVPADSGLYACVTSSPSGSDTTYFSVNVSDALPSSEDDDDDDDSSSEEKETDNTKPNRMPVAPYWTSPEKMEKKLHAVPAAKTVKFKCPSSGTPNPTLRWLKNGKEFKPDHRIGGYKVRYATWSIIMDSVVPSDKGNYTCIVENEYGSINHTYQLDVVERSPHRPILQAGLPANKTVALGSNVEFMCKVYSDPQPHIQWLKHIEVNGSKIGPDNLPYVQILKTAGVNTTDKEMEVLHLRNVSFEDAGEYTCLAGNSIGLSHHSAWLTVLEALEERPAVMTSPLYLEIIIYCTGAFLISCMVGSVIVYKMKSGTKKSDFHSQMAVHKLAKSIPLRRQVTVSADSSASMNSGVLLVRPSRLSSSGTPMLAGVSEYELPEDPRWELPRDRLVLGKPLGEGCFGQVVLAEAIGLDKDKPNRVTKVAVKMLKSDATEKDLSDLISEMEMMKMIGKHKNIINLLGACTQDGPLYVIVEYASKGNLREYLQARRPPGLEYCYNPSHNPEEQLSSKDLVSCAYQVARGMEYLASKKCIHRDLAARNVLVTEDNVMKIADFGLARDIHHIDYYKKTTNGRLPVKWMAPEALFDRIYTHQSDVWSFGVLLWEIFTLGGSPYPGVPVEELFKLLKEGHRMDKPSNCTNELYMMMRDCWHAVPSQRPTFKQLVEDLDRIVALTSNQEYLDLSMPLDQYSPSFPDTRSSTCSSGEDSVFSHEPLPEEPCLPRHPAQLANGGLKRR
T5 sequence (P21802 whole entry N549K, the tested form may be a part): as the sequence (P21802 whole entry V564F, the tested form may be a part) above, with N549K, F564V counted along it

Row | SMILES | IC50 [1] | FGFR1 IC50/FGFR2 IC50 [1] | FGFR3 IC50/FGFR2 IC50 [1] | IC50 [2] | IC50 [3] | IC50 [4] | IC50 [5] | IC50 [6] | GI50 [7] | GI50 [8]
1 | C=CC(=O)N1CCC2(CC=C(c3c(-c4ccc(Oc5ncccn5)cc4)c4c(N)ncnc4n3C)CC2)CC1 [Example 4, 1-(9-(4-amino-7-methyl-5-(4-(pyrimidin-2-yloxy)phenyl)-7H-pyrrolo[2,3-d]pyrimidin-6-yl)-3-azaspiro[5.5]undec-8-en-3-yl)prop-2-en-1-one] | 1 to 10 nM | F (a selectivity ratio greater than 50 but less than or equal to 150) | G (a selectivity ratio greater than 150 but less than or equal to 500) | 30 to 100 nM | 1 to 10 nM | > 100 nM | 10 to 30 nM | > 100 nM | – | –
2 | C=CC(=O)N1CCC2(CC=C(c3c(-c4ccc(OC)cc4)c4c(N)ncnc4n3C)CC2)CC1 [Example 8, 1-(9-(4-amino-5-(4-methoxyphenyl)-7-methyl-7H-pyrrolo[2,3-d]pyrimidin-6-yl)-3-azaspiro[5.5]undec-8-en-3-yl)prop-2-en-1-one] | ≤ 1 nM | G (a selectivity ratio greater than 150 but less than or equal to 500) | H (a selectivity ratio greater than 500 but less than or equal to 1000) | 1 to 10 nM | 1 to 10 nM | > 100 nM | 1 to 10 nM | 30 to 100 nM | – | –
3 | C=CC(=O)N1CCC2(CC=C(c3c(-c4cccc(F)c4)c4c(N)ncnc4n3C)CC2)CC1 [Example 10, 1-(9-(4-amino-5-(3-fluorophenyl)-7-methyl-7H-pyrrolo[2,3-d]pyrimidin-6-yl)-3-azaspiro[5.5]undec-8-en-3-yl)prop-2-en-1-one] | 1 to 10 nM | G (a selectivity ratio greater than 150 but less than or equal to 500) | G (a selectivity ratio greater than 150 but less than or equal to 500) | 30 to 100 nM | 10 to 30 nM | > 100 nM | 10 to 30 nM | > 100 nM | – | –
4 | C=CC(=O)N1CCC2(CC=C(c3c(-c4ccc(F)cc4)c4c(N)ncnc4n3C)CC2)CC1 [Example 11, 1-(9-(4-amino-5-(4-fluorophenyl)-7-methyl-7H-pyrrolo[2,3-d]pyrimidin-6-yl)-3-azaspiro[5.5]undec-8-en-3-yl)prop-2-en-1-one] | 1 to 10 nM | I (a selectivity ratio greater than 1000 but less than or equal to 2000) | J (a selectivity ratio greater than 2000) | 30 to 100 nM | 10 to 30 nM | > 100 nM | 30 to 100 nM | > 100 nM | 30 to 100 nM | 1 to 10 nM
5 | C=CC(=O)N1CCC2(CC=C(c3c(-c4cccc(OC)c4)c4c(N)ncnc4n3C)CC2)CC1 [Example 16, 1-(9-(4-amino-5-(3-methoxyphenyl)-7-methyl-7H-pyrrolo[2,3-d]pyrimidin-6-yl)-3-azaspiro[5.5]undec-8-en-3-yl)prop-2-en-1-one] | 1 to 10 nM | F (a selectivity ratio greater than 50 but less than or equal to 150) | G (a selectivity ratio greater than 150 but less than or equal to 500) | 30 to 100 nM | 10 to 30 nM | > 100 nM | 10 to 30 nM | > 100 nM | – | –
6 | C=CC(=O)N1CCC2(CC=C(c3c(-c4ccc(OC(F)F)cc4)c4c(N)ncnc4n3C)CC2)CC1 [Example 17, 1-(9-(4-amino-5-(4-(difluoromethoxy)phenyl)-7-methyl-7H-pyrrolo[2,3-d]pyrimidin-6-yl)-3-azaspiro[5.5]undec-8-en-3-yl)prop-2-en-1-one] | ≤ 1 nM | G (a selectivity ratio greater than 150 but less than or equal to 500) | G (a selectivity ratio greater than 150 but less than or equal to 500) | 10 to 30 nM | 1 to 10 nM | > 100 nM | 1 to 10 nM | 30 to 100 nM | – | –
7 | C=CC(=O)N1CCC2(CC=C(c3c(-c4ccc(OC5CC5)cc4)c4c(N)ncnc4n3C)CC2)CC1 [Example 18, 1-(9-(4-amino-5-(4-cyclopropoxyphenyl)-7-methyl-7H-pyrrolo[2,3-d]pyrimidin-6-yl)-3-azaspiro[5.5]undec-8-en-3-yl)prop-2-en-1-one] | ≤ 1 nM | G (a selectivity ratio greater than 150 but less than or equal to 500) | G (a selectivity ratio greater than 150 but less than or equal to 500) | 10 to 30 nM | 1 to 10 nM | > 100 nM | 1 to 10 nM | > 100 nM | 1 to 10 nM | 1 to 10 nM
8 | C=CC(=O)N1CCC2(CC=C(c3c(-c4ccc(OC5CC5)nc4)c4c(N)ncnc4n3C)CC2)CC1 [Example 22, 1-(9-(4-amino-5-(6-cyclopropoxypyridin-3-yl)-7-methyl-7H-pyrrolo[2,3-d]pyrimidin-6-yl)-3-azaspiro[5.5]undec-8-en-3-yl)prop-2-en-1-one] | 1 to 10 nM | G (a selectivity ratio greater than 150 but less than or equal to 500) | G (a selectivity ratio greater than 150 but less than or equal to 500) | 10 to 30 nM | 1 to 10 nM | > 100 nM | 1 to 10 nM | > 100 nM | 1 to 10 nM | 1 to 10 nM
9 | C=CC(=O)N1CCC2(CC=C(c3c(-c4ccc(OC(F)F)nc4)c4c(N)ncnc4n3C)CC2)CC1 [Example 29, 1-(9-(4-amino-5-(6-(difluoromethoxy)pyridin-3-yl)-7-methyl-7H-pyrrolo[2,3-d]pyrimidin-6-yl)-3-azaspiro[5.5]undec-8-en-3-yl)prop-2-en-1-one] | ≤ 1 nM | H (a selectivity ratio greater than 500 but less than or equal to 1000) | J (a selectivity ratio greater than 2000) | – | 1 to 10 nM | > 100 nM | 1 to 10 nM | > 100 nM | 30 to 100 nM | 1 to 10 nM
